pIC50: −log10 of the molar value. Read-outs that look alike come from different tables or passages of the source.
Key:
Test in all cases: biochemical
MMP-13 = molecular target: T1, MMP-13 (Homo sapiens, UniProt P45452); conditions: recombinant human MMP-13, MCA peptide substrate 4 μM, pH 7.5, room temperature; read-out: MMP-13 IC50
T1 construct: made in house; host or cells: baculovirus / insect cells
Outline: (§1)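 Assay buffer 100 mM Tris-HCl, 100 mM NaCl, 10 mM CaCl2, pH 7.5. Activated MMP + inhibitor, 5 min RT; then methoxycoumarin peptide substrate, 4 μM final. Readout fluorescence; IC50 calculated.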

MMP-2 = molecular target: T2, MMP-2 (Homo sapiens, UniProt P08253); conditions: for pIC50: recombinant human MMP-2, MCA peptide substrate 4 μM, pH 7.5, room temperature, read-out: MMP-2 IC50
T2 construct: made in house; provided by Dr. Gregory Goldberg, Washington University
T2 sequence (P08253 110-660): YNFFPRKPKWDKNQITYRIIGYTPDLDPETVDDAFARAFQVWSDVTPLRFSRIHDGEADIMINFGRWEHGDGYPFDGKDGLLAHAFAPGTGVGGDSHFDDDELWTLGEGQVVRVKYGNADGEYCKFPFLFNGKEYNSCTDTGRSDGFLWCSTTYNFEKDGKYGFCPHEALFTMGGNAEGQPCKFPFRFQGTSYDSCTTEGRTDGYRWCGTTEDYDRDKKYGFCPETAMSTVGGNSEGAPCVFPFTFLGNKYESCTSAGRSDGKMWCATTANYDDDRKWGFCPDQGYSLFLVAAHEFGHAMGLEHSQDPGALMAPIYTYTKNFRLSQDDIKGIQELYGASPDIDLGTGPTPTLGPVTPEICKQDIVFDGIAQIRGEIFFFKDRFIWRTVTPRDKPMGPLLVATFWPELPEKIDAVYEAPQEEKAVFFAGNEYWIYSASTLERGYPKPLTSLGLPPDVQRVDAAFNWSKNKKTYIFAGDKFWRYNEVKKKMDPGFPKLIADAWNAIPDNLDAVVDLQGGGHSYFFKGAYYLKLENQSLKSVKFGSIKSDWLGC
Outline: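 APMA- or trypsin-activated enzymes were preincubated with inhibitor for 5 min at room temperature, then the fluorogenic substrate MCA-Pro-Leu-Gly-Leu-Dpa-Ala-Arg-NH2 was added to a final 4 μM.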

MMP-1 = molecular target: T3, MMP-1 (Homo sapiens, UniProt P03956)
T3 construct: made in house; host or cells: transfected HT-1080 cells (provided by Dr. Harold Welgus, Washington University)
T3 sequence (P03956 100-469): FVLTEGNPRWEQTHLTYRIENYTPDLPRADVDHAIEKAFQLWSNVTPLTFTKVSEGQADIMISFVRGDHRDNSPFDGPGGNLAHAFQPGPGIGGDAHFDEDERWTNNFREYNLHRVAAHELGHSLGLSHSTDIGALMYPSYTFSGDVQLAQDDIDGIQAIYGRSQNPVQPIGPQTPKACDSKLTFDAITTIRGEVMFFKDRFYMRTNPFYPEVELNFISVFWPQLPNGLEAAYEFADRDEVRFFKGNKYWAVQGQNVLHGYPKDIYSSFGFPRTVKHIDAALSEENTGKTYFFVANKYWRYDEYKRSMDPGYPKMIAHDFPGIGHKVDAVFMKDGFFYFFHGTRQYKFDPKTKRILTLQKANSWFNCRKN
Outline: as §1

[1] = recombinant human MMP-1, MCA peptide substrate 4 μM, pH 7.5, room temperature, read-out: MMP-1 IC50

Structure (SMILES) | pIC50 (MMP-13) | pIC50 (MMP-2) | pIC50 (MMP-1; [1]) | IC50 (MMP-2; MMP-2 IC50 (nM)) | pIC50 (MMP-1)
CCOCC1CCCN(c2ccc(S(=O)(=O)C3(C(=O)NO)CCOCC3)cc2)C1 (stereo not drawn) [Example 563] | 7.15 | 6.63 | < 5.00 | – | –
O=C(NO)C1(S(=O)(=O)c2ccc(N3CCC(O)CC3)cc2)CCOCC1 [Example 564] | 6.82 | 6.26 | < 5.00 | – | –
O=C(NO)C1(S(=O)(=O)c2ccc(N3CCC(OCc4ccc(COCC(F)(F)C(F)(F)F)cc4)CC3)cc2)CCOCC1 [Example 565] | 8.26 | 6.15 | < 5.00 | – | –
CN(C)Cc1ccc(COC2CCN(c3ccc(S(=O)(=O)C4(C(=O)NO)CCOCC4)cc3)CC2)cc1 [Example 566] | 7.80 | 7.24 | < 5.00 | – | –
O=C(NO)C1(S(=O)(=O)c2ccc(N3CCC(Oc4ccc(C(F)(F)F)cc4)CC3)cc2)CCOCC1 [Example 567] | 8.30 | 7.06 | < 5.00 | – | –
O=C(NO)C1(S(=O)(=O)c2ccc(N3CCC(Oc4ccccc4C(F)(F)F)CC3)cc2)CCOCC1 [Example 568] | 6.92 | 5.34 | < 5.00 | – | –
O=C(NO)C1(S(=O)(=O)c2ccc(N3CCC(Oc4ccc([N+](=O)[O-])c(C(F)(F)F)c4)CC3)cc2)CCOCC1 [Example 569] | 7.77 | 7.06 | < 5.00 | – | –
O=C(NO)C1(S(=O)(=O)c2ccc(N3CCC(Oc4c(Cl)cc(C(F)(F)F)cc4Cl)CC3)cc2)CCOCC1 [Example 570] | 6.54 | < 5.00 | < 5.00 | – | –
O=C(NO)C1(S(=O)(=O)c2ccc(N3CCC(Oc4ccc(C(F)(F)F)cc4[N+](=O)[O-])CC3)cc2)CCOCC1 [Example 571] | 7.54 | 6.85 | < 5.00 | – | –
O=C(NO)C1(S(=O)(=O)c2ccc(N3CCC(OCc4cccc(Cl)c4)CC3)cc2)CCOCC1 [Example 573] | 7.94 | 6.63 | < 5.00 | – | –
O=C(NO)C1(S(=O)(=O)c2ccc(N3CCC(OCc4ccccc4Cl)CC3)cc2)CCOCC1 [Example 574] | 7.97 | 6.66 | < 5.00 | – | –
O=C(NO)C1(S(=O)(=O)c2ccc(N3CCC(OCc4cccc(F)c4)CC3)cc2)CCOCC1 [Example 575] | 7.97 | 6.96 | < 5.00 | – | –
O=C(NO)C1(S(=O)(=O)c2ccc(N3CCC(OCc4ccccc4F)CC3)cc2)CCOCC1 [Example 576] | 8.06 | 7.11 | < 5.00 | – | –
Cn1c(=O)n(C2CCN(c3ccc(S(=O)(=O)C4(C(=O)NO)CCOCC4)cc3)CC2)c2ccccc21 [Example 589] | 7.15 | < 5.00 | < 5.00 | – | –
CCCC(=O)N1CCN(c2ccc(S(=O)(=O)C3(C(=O)NO)CCOCC3)cc2)CC1 [Example 590] | 6.92 | 7.10 | < 5.00 | – | –
CCCCCC(=O)N1CCN(c2ccc(S(=O)(=O)C3(C(=O)NO)CCOCC3)cc2)CC1 [Example 592] | 7.24 | 6.16 | < 5.00 | – | –
O=C(c1ccccc1)N1CCN(c2ccc(S(=O)(=O)C3(C(=O)NO)CCOCC3)cc2)CC1 [Example 593] | 6.38 | 6.19 | < 5.00 | – | –
COc1ccc(C(=O)N2CCN(c3ccc(S(=O)(=O)C4(C(=O)NO)CCOCC4)cc3)CC2)cc1 [Example 594] | 6.24 | – | – | 650 nM | < 5.00
O=C(c1ccc(OC(F)(F)F)cc1)N1CCN(c2ccc(S(=O)(=O)C3(C(=O)NO)CCOCC3)cc2)CC1 [Example 595] | 6.57 | 6.37 | < 5.00 | – | –
O=C(NO)C1(S(=O)(=O)c2ccc(N3CCC(OCc4ccc(COCC(F)(F)C(F)(F)C(F)(F)F)cc4)CC3)cc2)CCOCC1 [Example 609] | 7.51 | 5.55 | < 5.00 | – | –

More lines, main results first:

pIC50 (MMP-13) | pIC50 (MMP-2) | pIC50 (MMP-1; [1]) | Structure (SMILES) | IC50 (MMP-2; MMP-2 IC50 (nM)) | pIC50 (MMP-1)
6.97 | 5.66 | < 5.00 | O=C(NO)C1(S(=O)(=O)c2ccc(N3CCC(OCc4ccncc4)CC3)cc2)CCOCC1 [Example 577] | – | –
6.80 | 5.70 | < 5.00 | O=C(NO)C1(S(=O)(=O)c2ccc(N3CCC(OCc4ccccn4)CC3)cc2)CCOCC1 [Example 578] | – | –
8.57 | 7.00 | < 5.00 | O=C(NO)C1(S(=O)(=O)c2ccc(N3CCC(OCc4ccc(Br)cc4)CC3)cc2)CCOCC1 [Example 579] | – | –
7.43 | 6.15 | < 5.00 | O=C(NO)C1(S(=O)(=O)c2ccc(N3CCC(OCc4cccnc4)CC3)cc2)CCOCC1 [Example 580] | – | –
7.57 | 6.32 | < 5.00 | CC1CN(c2ccc(S(=O)(=O)C3(C(=O)NO)CCOCC3)cc2)CCC1OCc1ccccc1 (stereo not drawn) [Example 581] | – | –
7.52 | 5.74 | < 5.00 | CC1CN(c2ccc(S(=O)(=O)C3(C(=O)NO)CCOCC3)cc2)CCC1OCc1ccc(F)cc1 (stereo not drawn) [Example 582] | – | –
7.15 | 5.33 | < 5.00 | CC1CN(c2ccc(S(=O)(=O)C3(C(=O)NO)CCOCC3)cc2)CCC1OCc1ccc(C(F)(F)F)cc1 (stereo not drawn) [Example 583] | – | –
5.57 | 5.46 | < 5.00 | CN(CCc1ccccc1)C1CCN(c2ccc(S(=O)(=O)C3(C(=O)NO)CCOCC3)cc2)CC1 [Example 584] | – | –
8.74 | 9.00 | < 5.00 | O=C(NO)C1(S(=O)(=O)c2ccc(N3CC=C(c4ccccc4)CC3)cc2)CCOCC1 [Example 587] | – | –
7.15 | 6.14 | < 5.00 | CCCCC(=O)N1CCN(c2ccc(S(=O)(=O)C3(C(=O)NO)CCOCC3)cc2)CC1 [Example 591] | – | –
8.96 | 7.97 | < 5.00 | CCCCSC1CCN(c2ccc(S(=O)(=O)C3(C(=O)NO)CCOCC3)cc2)CC1 [Example 596] | – | –
6.17 | 6.15 | < 5.00 | CCCCCN(C)C1CCN(c2ccc(S(=O)(=O)C3(C(=O)NO)CCOCC3)cc2)CC1 [Example 597] | – | –
8.05 | 6.22 | < 5.00 | CC(C)CCOCc1ccc(COC2CCN(c3ccc(S(=O)(=O)C4(C(=O)NO)CCOCC4)cc3)CC2)cc1 [Example 600] | – | –
8.05 | 5.89 | < 5.00 | CCC(C)COCc1ccc(COC2CCN(c3ccc(S(=O)(=O)C4(C(=O)NO)CCOCC4)cc3)CC2)cc1 (stereo not drawn) [Example 601] | – | –
7.15 | 5.52 | < 5.00 | CCC(CC)COCc1ccc(COC2CCN(c3ccc(S(=O)(=O)C4(C(=O)NO)CCOCC4)cc3)CC2)cc1 [Example 602] | – | –
7.80 | 5.64 | < 5.00 | CCC(C)CCOCc1ccc(COC2CCN(c3ccc(S(=O)(=O)C4(C(=O)NO)CCOCC4)cc3)CC2)cc1 (stereo not drawn) [Example 603] | – | –
7.70 | 5.60 | < 5.00 | O=C(NO)C1(S(=O)(=O)c2ccc(N3CCC(OCc4ccc(COCC5CCCCC5)cc4)CC3)cc2)CCOCC1 [Example 604] | – | –
7.97 | 5.70 | < 5.00 | O=C(NO)C1(S(=O)(=O)c2ccc(N3CCC(OCc4ccc(COCC5CCCC5)cc4)CC3)cc2)CCOCC1 [Example 605] | – | –
8.52 | 7.11 | < 5.00 | O=C(NO)C1(S(=O)(=O)c2ccc(N3CCC(OCc4ccc(COCCF)cc4)CC3)cc2)CCOCC1 [Example 606] | – | –
8.54 | 6.66 | < 5.00 | O=C(NO)C1(S(=O)(=O)c2ccc(N3CCC(OCc4ccc(COCC(F)(F)F)cc4)CC3)cc2)CCOCC1 [Example 607] | – | –
8.52 | 6.60 | < 5.00 | O=C(NO)C1(S(=O)(=O)c2ccc(N3CCC(OCc4ccc(COCC(F)(F)C(F)F)cc4)CC3)cc2)CCOCC1 [Example 608] | – | –
